{
  "source": "patent US20220142934A1",
  "about": "“COMBINATION THERAPEUTICS AND METHODS FOR THE TREATMENT OF NEURODEGENERATIVE AND OTHER DISEASES” (Aphios Corporation, priority 2020, published 2022)",
  "key": {"ADAM10": {"system": "ADAM10", "assay": "ADAM10 (alpha-secretase) expression in SH-SY5Y cells", "type": "cell-based", "conditions": "each agent alone or in combination", "excerpt": "Therefore, Bryostatin-1 may increase a-secretase processing through 2 independent mechanisms: (i) activation of PKCs which stimulate secretase; and (ii) increased expression of a-secretase."}, "prostate cancer cells": {"system": "prostate cancer cells", "conditions": "by modulating PKC delta translocation and preventing TNF-alpha release; cited from earlier work"}, "[1]": {"system": "Mouse strain B6C3-Tg carrying mutant Swedish Amyloid precursor protein (sweAPP) and PSI (presenilin-l) genes", "assay": "Water maze studies in Alzheimer's disease mouse model", "type": "in vivo", "excerpt": "Mouse strain B6C3-Tg carrying mutant Swedish Amyloid precursor protein (sweAPP) and PSI (presenilin-l) genes associated with early onset Alzheimer's disease were subjected to water maze tests at 5-6 months of age."}, "[2]": {"system": "SH-SY5Y neuroblastoma cells", "assay": "sAPPα formation/release in SH-SY5Y cells (6E10 western blot, densitometry)", "type": "cell-based", "conditions": "Bryostatin-1 alone", "experimental": "Cells were treated with RA, Bryostatin-1 (10^−9M)+RA, Bryostatin-1 (10^−10M) RA+Bryostatin-1 (10^−10M) for 3 h. Representative western blots show sAPPα recovered from culture medium."}},
  "data": [
    {"smiles": "CCC/C=C/C=C/C(=O)O[C@H]1/C(=C/C(=O)OC)C[C@H]2C[C@H]([C@@H](C)O)OC(=O)C[C@H](O)C[C@@H]3C[C@H](OC(C)=O)C(C)(C)[C@](O)(C[C@@H]4C/C(=C/C(=O)OC)C[C@H](/C=C/C(C)(C)[C@]1(O)O2)O4)O3", "note": "[Bryostatin-1]", "values": [
      {"measurement": "expression of ADAM10 (the major form of alpha-secretase)", "setting": "ADAM10", "result": "significantly increase"},
      {"measurement": "phorbol ester-induced apoptosis", "setting": "prostate cancer cells", "result": "inhibits"},
      {"measurement": "protection against Alzheimer's disease mediated memory loss (water maze)", "setting": "[1]; 5 micrograms/mouse on alternative days orally in an oil formulation, mice 5-6 months of age, vs control animals", "result": "significant protection"},
      {"measurement": "memory and cognition in AD model", "setting": "[1]; mouse, in vivo", "result": "enhance memory and cognition"},
      {"measurement": "sAPPα formation", "setting": "[2]; 10^−9M, SH-SY5Y cells", "result": "increased"},
      {"measurement": "sAPPα recovered from culture medium", "setting": "[2]; 10^−10M, 3 h, SH-SY5Y cells, vs control", "result": "significantly increased"},
      {"measurement": "activity of alpha-secretase", "setting": "[2]; SH-SY5Y neuroblastoma cells", "result": "potently stimulate"}
    ]}
  ]
}
